Data on three molecules can be found in article PMC3137686 (Synapse (New York, N.Y.), 2011).

SMILES strings stand for the structures. “Also recorded” adds a separate entry of the source.

Data set [1] deals with brain 5-HT axonal markers. The following applies: intrastriatal administration; ref Jones et al. 2005; cited from earlier work.
Another data set concerns cytochrome P450 (CYP450). The following applies: ref Broly et al. 1990; Ramamoorthy et al. 2002; Heydari et al. 2004; cited from earlier work.
The next data set in a line: Rectal. Type of data set: in vivo, rat.
The test system of data set [2] is brain serotonin (5-HT) neurons. To be noted: ref Paris and Cunningham 1992, Esteban et al. 2001, Escobedo et al. 2005; cited from earlier work.
Data set [3] concerns brain serotonin (5-HT) neurons. Put plainly: Regional brain 5-HT and 5-HIAA concentrations one week after drug treatment. To be noted: one week after single oral dose of 20 mg/kg MDMA. Format: in vivo, rat.

For the molecule `CNC(C)Cc1cc(O)c(O)c(SC[C@H](NC(C)=O)C(=O)O)c1` (stereo partly shown) [5-NAC-HHMA, 5-N-acetylcystein-S-yl-HHMA], the “lasting depletions of indoles in the rat brain” value in data set [1] was “produces lasting depletions of indoles”.

As for `COc1ccc2c(c1)[C@]13CCCC[C@@H]1[C@H](C2)N(C)CC3` [DXM, dextromethorphan], the “inhibition of CYP450-mediated metabolism of MDMA to HHMA” value in the data set on cytochrome P450 (CYP450) is listed as “potent competitive inhibitor”. Further, the “effect of DXM on body (core) temperature” value in the data set “Rectal” (DXM 30 mg/kg i.p. x3, alone or in combination with MDMA 20 mg/kg p.o.) was “did not significantly alter; also recorded: no significant effect”. Also, the “body temperature after combination of MDMA and DXM” value in the data set “Rectal” (MDMA 20 mg/kg p.o. + DXM 30 mg/kg i.p. x3) is recorded as “longer lasting decrease in temperature, which was followed by an increase in core temperature”. Also, the “peak temperatures, MDMA/DXM group vs MDMA/Saline group” value in the data set “Rectal” (MDMA 20 mg/kg p.o. + DXM 30 mg/kg i.p. x3, difference did not achieve statistical significance) was “lower”.

As for `CNC(C)Cc1ccc2c(c1)OCO2` (stereo not shown) [MDMA, 3,4-Methylenedioxymethamphetamine], the “toxic effects after central administration” value in data set [2] is on record as “does not produce toxic effects”. Moreover, the “5-HT and 5-HIAA concentrations across brain regions after MDMA” value in data set [3] is given as “lasting effects”.
